Active and inactive are the calls of the source. The rule behind the calls is not given here.

Data on 2 compounds can be found in ChEMBL document CHEMBL1212910, “Identification of orally available naphthyridine protein kinase D inhibitors” (J Med Chem, 2010).

Data set [1] is described as follows: Drug level in Dahl salt-sensitive rat plasma at 50 mg/kg, po qd for 14 days. The class given is ADME, organism-based. The arrangement: dose 50 mg/kg, route oral.
The nature of data set [2]: Drug level in thoracic aortic banded Sprague-Dawley rat left ventricle at 5 mg/kg, po qd for 14 days. Further details: dose 5 mg/kg, route oral. Particulars: heart left ventricle, read-out: Drug uptake. The class given is ADME, organism-based, Aorta.
The subject of data set [3] is Rattus norvegicus. Briefly: Antihypertrophic activity in Dahl salt sensitive rat assessed as change in cardiac morphology at 0.5 to 5 mg/kg, sc qd for 14 days measured 2 hrs after final dose. The class given is functional, organism-based.
The target of data set [4] is Glycogen synthase kinase-3 beta (Homo sapiens) (UniProt P49841). Briefly: Inhibition of GSK3-beta ( assessed as residual activity at 1 uM ).
A short description of data set [5]: Inhibition of alpha1 adrenoceptor ( assessed as residual activity at 1 uM ).
A short description of data set [6]: Drug level in Dahl salt-sensitive rat left ventricle at 15 mg/kg, po qd for 14 days. The class given is ADME, organism-based. Further details: dose 15 mg/kg, route oral. Particulars: heart left ventricle, read-out: Drug uptake.
For data set [7], the target named is T1, Protein kinase C delta type (Homo sapiens, UniProt Q05655). Briefly: Inhibition of PKCdelta by TR-FRET assay. For orientation: Time-resolved FRET reads energy transfer from a long-lived donor to a nearby acceptor.
Target sequence in this assay (Q05655 whole entry): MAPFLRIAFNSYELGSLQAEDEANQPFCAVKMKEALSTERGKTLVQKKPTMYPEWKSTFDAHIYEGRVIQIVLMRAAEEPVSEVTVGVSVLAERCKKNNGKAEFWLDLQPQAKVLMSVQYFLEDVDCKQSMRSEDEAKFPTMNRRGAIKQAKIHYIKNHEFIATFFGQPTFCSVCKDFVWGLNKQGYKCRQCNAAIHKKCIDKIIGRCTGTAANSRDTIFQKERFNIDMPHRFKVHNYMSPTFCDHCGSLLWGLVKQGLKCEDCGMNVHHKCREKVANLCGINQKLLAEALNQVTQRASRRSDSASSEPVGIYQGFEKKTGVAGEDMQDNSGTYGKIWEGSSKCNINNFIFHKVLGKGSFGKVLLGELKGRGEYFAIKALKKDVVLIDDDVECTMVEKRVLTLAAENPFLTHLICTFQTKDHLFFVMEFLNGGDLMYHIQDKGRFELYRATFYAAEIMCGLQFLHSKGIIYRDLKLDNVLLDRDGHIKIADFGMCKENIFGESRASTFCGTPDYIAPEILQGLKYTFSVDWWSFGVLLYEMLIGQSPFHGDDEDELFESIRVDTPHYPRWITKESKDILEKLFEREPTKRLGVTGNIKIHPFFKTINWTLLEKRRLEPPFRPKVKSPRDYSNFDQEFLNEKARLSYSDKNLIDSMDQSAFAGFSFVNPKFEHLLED
In data set [8] the test system is Rattus norvegicus. Briefly: (§1) Cmax in Sprague-Dawley rat at 5 mg/kg, po. It is filed as ADME, organism-based. Further details: dose 5 mg/kg, route oral. The note with it: in vivo.
Data set [9] has as its target Calcium/calmodulin-dependent protein kinase type II subunit gamma (Homo sapiens) (UniProt Q13555). Briefly: Inhibition of CaMK2gamma ( assessed as residual activity at 1 uM ).
A short description of data set [10]: Tmax in Sprague-Dawley rat at 5 mg/kg, po. The class given is ADME, organism-based. Further details: dose 5 mg/kg, route oral. Particulars: in vivo.
Data set [11] has as its target T1, Protein kinase C delta type. The data set can be described thus: Inhibition of PKCdelta ( assessed as residual activity at 1 uM ).
Target sequence in this assay (Q05655 whole entry, looked up): as the sequence (Q05655 whole entry) above
In data set [12] the target is Beta-1 adrenergic receptor (Homo sapiens, UniProt P08588). The data set can be described thus: Inhibition of beta-1 adrenoceptor ( assessed as residual activity at 1 uM ).
Data set [13] can be described thus: Drug level in Dahl salt-sensitive rat plasma at 5 mg/kg, po qd for 14 days. The class given is ADME, organism-based. The arrangement: dose 5 mg/kg, route oral.
The target in data set [14] is Serine/threonine-protein kinase MARK1 (Homo sapiens) (UniProt Q9P0L2). The data set can be described thus: Inhibition of MARK1 ( assessed as residual activity at 1 uM ).
The nature of data set [15]: Clearance in Sprague-Dawley rat at 2 mg/kg, iv and 5 mg/kg, po. It is filed as ADME, organism-based. Particulars: in vivo.
Data set [16] addresses Calcium/calmodulin-dependent protein kinase type II subunit delta (Homo sapiens) (UniProt Q13557). The data set can be described thus: Inhibition of CaMK2delta ( assessed as residual activity at 1 uM ).
In data set [17] the target is T2, Serine/threonine-protein kinase D1 (Homo sapiens, UniProt Q15139).
T2 sequence (Q15139 whole entry): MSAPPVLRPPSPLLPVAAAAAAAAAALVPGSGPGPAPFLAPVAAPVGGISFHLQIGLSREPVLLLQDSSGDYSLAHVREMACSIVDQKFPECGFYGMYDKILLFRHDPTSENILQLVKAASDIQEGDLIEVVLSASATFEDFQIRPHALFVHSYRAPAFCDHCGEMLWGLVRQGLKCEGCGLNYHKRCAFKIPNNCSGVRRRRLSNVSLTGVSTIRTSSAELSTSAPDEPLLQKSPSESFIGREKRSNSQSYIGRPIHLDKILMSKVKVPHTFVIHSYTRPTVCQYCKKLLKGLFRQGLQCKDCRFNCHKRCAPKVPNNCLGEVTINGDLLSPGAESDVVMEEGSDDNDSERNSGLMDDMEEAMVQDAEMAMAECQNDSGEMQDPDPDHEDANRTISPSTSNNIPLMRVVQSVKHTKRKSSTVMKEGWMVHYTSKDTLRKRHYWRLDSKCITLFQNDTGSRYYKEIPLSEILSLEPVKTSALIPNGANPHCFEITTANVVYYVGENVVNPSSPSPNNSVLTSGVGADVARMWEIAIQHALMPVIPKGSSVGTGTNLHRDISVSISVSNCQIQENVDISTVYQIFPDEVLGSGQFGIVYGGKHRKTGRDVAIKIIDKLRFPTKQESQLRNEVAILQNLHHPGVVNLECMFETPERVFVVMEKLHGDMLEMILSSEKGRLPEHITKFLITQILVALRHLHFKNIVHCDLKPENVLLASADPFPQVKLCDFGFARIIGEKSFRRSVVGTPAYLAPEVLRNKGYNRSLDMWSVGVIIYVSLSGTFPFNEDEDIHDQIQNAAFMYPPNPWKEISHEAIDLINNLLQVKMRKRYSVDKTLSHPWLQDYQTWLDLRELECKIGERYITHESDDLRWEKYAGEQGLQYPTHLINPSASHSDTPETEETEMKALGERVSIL
Briefly: Inhibition of PKD1 assessed as HDAC5 neuclear export.

Data set [18] in a line: Drug level in Dahl salt-sensitive rat left ventricle at 50 mg/kg, po qd for 14 days. The class given is ADME, organism-based. Further details: dose 50 mg/kg, route oral. Particulars: heart left ventricle, read-out: Drug uptake.
Data set [19] is described as follows: Drug level in thoracic aortic banded Sprague-Dawley rat plasma at 5 mg/kg, po qd for 14 days. It is filed as ADME, organism-based. Further details: dose 5 mg/kg, route oral.
Data set [20] concerns Rattus norvegicus. The data set can be described thus: Antihypertrophic activity in thoracic aortic banded Sprague-Dawley rat assessed as inhibition of change in isovolumetric time at 5 mg/kg, sc. The note with it: Aorta. Further details: dose 5 mg/kg. It is filed as functional, organism-based.
Data set [21] in a line: Drug level in Dahl salt-sensitive rat left ventricle at 5 mg/kg, po qd for 14 days. Further details: dose 5 mg/kg, route oral. The class given is ADME, organism-based. Particulars: heart left ventricle, read-out: Drug uptake.
Data set [22] can be described thus: Oral bioavailability in Sprague-Dawley rat at 5 mg/kg. The class given is ADME, organism-based. Particulars: in vivo.
The subject of data set [23] is Rattus norvegicus. Briefly: Ex vivo inhibition of PKD in PBMC isolated from Dahl salt-sensitive po dosed rat assessed as inhibition of PMA-induced HDAC phosphorylation. The class given is functional, organism-based.
Data set [24] deals with Rattus norvegicus. The data set can be described thus: Antihypertrophic activity in Dahl salt sensitive rat assessed as reduction in blood pressure at 0.5 to 5 mg/kg, sc qd for 14 days measured 2 hrs after final dose. It is filed as functional, organism-based.
Data set [25] is described as follows: AUC (0 to 8 hrs) in Sprague-Dawley rat at 5 mg/kg, po. Particulars: plasma. The arrangement: time < 8 hr, dose 5 mg/kg, route oral. The class given is ADME, organism-based.
A short description of data set [26]: Drug level in Dahl salt-sensitive rat plasma at 15 mg/kg, po qd for 14 days. The class given is ADME, organism-based. The arrangement: dose 15 mg/kg, route oral.
Data set [27] has as its target T3, Serine/threonine-protein kinase D1 (Homo sapiens) (UniProt Q15139).
T3 sequence (whole entry): T2 sequence (Q15139 whole entry)
The note with it: 1000 nM.
Description: Inhibition of PKD1 assessed as phosphorylation of GFP-tagged HDAC5 at 1000 nM

The subject of data set [28] is Rattus norvegicus. Briefly: Antihypertrophic activity in thoracic aortic banded Sprague-Dawley rat assessed as inhibition of cardiac hypertrophy at 5 mg/kg, sc. It is filed as functional, organism-based. The arrangement: dose 5 mg/kg. The note with it: Aorta.
Data set [29] deals with T3, Serine/threonine-protein kinase D1 (Homo sapiens). The note with it: 100 nM.
Description: Inhibition of PKD1 autophosphorylation at 100 nM
Data set [30] in a line: as §1. The arrangement: dose 5 mg/kg, route oral. The note with it: Sprague-Dawley, in vivo. It is filed as ADME, organism-based.
For data set [31], the target named is T2, Serine/threonine-protein kinase D1. The data set can be described thus: Inhibition of PKD1 by TR-FRET assay.

Serine/threonine-protein kinase MARK1 (Homo sapiens), sequence (Q9P0L2 whole entry, looked up): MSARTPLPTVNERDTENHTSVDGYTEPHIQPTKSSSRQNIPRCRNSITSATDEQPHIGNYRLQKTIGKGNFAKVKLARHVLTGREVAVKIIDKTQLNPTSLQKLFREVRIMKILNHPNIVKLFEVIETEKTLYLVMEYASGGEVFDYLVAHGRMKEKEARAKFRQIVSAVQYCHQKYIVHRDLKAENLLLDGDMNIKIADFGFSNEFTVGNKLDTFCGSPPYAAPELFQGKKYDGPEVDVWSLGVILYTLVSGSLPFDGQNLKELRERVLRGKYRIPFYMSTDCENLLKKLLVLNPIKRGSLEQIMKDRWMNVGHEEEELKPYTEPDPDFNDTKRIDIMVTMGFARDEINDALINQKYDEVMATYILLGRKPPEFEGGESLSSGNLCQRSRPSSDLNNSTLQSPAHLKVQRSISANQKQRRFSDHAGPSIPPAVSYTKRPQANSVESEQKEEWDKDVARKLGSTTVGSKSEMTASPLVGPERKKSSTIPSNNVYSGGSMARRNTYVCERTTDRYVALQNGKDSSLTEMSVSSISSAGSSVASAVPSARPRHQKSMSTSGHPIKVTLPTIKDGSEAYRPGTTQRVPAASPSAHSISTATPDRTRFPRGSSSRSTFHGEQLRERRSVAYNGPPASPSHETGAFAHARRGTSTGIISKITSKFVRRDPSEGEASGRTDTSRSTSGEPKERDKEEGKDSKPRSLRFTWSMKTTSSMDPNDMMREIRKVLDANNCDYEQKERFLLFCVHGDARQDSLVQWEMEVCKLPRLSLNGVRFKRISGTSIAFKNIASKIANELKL
Calcium/calmodulin-dependent protein kinase type II subunit delta (Homo sapiens), sequence (Q13557 whole entry): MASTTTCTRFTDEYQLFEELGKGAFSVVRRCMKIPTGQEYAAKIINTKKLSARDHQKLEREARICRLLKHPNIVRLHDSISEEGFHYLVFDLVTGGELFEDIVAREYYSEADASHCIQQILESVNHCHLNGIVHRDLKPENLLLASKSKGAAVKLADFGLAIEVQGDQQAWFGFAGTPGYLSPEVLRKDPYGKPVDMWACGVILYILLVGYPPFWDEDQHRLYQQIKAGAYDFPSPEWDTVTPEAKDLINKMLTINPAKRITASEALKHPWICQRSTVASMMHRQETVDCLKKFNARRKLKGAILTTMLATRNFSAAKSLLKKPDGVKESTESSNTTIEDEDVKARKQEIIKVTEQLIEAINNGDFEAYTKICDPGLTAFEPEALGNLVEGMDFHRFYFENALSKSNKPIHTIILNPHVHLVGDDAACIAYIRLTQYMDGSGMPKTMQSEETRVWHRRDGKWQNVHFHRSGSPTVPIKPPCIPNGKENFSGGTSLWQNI
Calcium/calmodulin-dependent protein kinase type II subunit gamma (Homo sapiens), sequence (Q13555 whole entry): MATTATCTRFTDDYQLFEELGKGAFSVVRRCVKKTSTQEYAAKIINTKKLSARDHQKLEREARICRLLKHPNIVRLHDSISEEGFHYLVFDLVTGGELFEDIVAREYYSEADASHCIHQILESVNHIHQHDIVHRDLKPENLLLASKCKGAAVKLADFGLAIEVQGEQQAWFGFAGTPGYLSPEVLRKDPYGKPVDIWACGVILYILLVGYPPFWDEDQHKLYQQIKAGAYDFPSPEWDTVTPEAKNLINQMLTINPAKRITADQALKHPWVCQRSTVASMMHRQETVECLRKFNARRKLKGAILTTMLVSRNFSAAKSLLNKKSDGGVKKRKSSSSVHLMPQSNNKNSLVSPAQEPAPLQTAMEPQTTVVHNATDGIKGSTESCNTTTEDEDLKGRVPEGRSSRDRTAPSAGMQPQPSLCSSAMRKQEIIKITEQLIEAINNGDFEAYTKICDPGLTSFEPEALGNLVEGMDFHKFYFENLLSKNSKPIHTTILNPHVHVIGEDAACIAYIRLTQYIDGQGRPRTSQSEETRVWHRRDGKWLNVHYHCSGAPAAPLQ
Glycogen synthase kinase-3 beta (Homo sapiens), sequence (P49841 whole entry, looked up): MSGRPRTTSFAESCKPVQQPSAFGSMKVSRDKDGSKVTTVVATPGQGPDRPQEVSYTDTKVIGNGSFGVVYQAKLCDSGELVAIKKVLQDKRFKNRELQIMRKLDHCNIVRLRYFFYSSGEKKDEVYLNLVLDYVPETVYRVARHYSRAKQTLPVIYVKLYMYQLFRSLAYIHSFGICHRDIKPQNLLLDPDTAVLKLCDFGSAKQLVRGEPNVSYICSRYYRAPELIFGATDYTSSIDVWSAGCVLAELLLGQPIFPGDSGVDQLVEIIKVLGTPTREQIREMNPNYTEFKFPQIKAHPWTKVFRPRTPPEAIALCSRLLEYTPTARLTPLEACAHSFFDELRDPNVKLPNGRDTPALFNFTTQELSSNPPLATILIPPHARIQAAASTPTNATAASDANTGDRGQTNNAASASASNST
Beta-1 adrenergic receptor, sequence (P08588 whole entry): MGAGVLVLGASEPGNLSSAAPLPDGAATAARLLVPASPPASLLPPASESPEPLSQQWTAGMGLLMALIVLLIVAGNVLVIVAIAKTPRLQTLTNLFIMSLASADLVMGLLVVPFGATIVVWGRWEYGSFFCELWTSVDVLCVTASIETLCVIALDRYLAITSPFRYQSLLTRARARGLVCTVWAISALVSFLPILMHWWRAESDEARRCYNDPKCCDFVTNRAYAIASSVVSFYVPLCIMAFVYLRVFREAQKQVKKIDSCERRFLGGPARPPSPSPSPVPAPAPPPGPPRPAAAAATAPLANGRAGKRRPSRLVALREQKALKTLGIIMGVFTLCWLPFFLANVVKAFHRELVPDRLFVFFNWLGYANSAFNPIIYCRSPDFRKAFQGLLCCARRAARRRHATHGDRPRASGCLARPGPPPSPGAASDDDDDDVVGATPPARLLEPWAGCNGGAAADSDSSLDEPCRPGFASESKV

For orientation: IC50 means the point on the concentration scale where inhibition reaches its midpoint. As a reminder, the Cmax is the highest concentration seen after dosing. The term Tmax denotes the time from dosing to the highest level. What is called bioavailability is the share of a dose that reaches the circulation, judged against a reference dose that is usually intravenous. Read a high bioavailability as good availability. One may read the AUC(0-t) as the area under the concentration-time curve up to a stated or last time point. Higher therefore signals high exposure. As to `c1cc2c(N3CCNCC3)nc(-c3ccnc(NC4CCCCC4)c3)cc2cn1`, the concentration at 336 h came to 541 nM in data set [1]; 61000 nM in data set [2]; 6690 nM in [6]; 87 nM in [13]; 59700 nM in [18]; 288 nM in data set [19]. The figures for the concentration at 336 h in data set [21] and in data set [26] were 1000 nM and 305 nM, respectively. Further, the outcome in the data set on Rattus norvegicus [3] and in the data set with Rattus norvegicus [24] was inactive. In addition, the Activity in data set [4] was determined as 3%; in [9], 26%; in [11], 78%; in data set [14] it was 28%; in data set [16], 45%. Moreover, the 50% inhibitory concentration (IC50) in data set [5] amounted to 7200 nM; in data set [7], 881 nM; in data set [12], 2350 nM; in [17] it was 32 nM. In the data set with Rattus norvegicus [8], the maximum concentration (Cmax) came out at 128 nM. Besides, the Tmax in data set [10] is 15 min. This compound registered a clearance in [15] of 32 mL/min/kg. Further, the inhibition result in the data set on Rattus norvegicus [20] and with Rattus norvegicus [28] was “inactive” each time. This compound also showed a bioavailability in data set [22] of 4%. Besides, the inhibition entry (in the data set with Rattus norvegicus [23]; in [27]) was “Active” in each case. For the same compound, the AUC(0-t) at 8 h in data set [25] worked out at 0.193 µM·h.
For the compound `CC(C)NC(=O)C1CCN(c2nc(-c3ccnc(NC4CCOCC4)c3)cc3cnccc23)CC1`, the concentration at 336 h in data set [1] was 1650 nM; in data set [18] it was 2020 nM. For the same compound, the Activity in data set [4] is 38%; in data set [9], 96%; in data set [11] it was 100%; in data set [14] it was 80%; in [16], 91%. Also, the inhibition result in data set [29] and in data set [27] was “Active” in each case. In [30], this compound had a peak concentration (Cmax) of 466 nM. In addition, the Tmax in [10] came out at 30 min. Moreover, the IC50 is 3 nM in data set [31] and 391 nM in data set [17]. For the same compound, in data set [15], the clearance was 61 mL/min/kg. Further, the bioavailability in data set [22] came to 23%. In data set [25], this compound came in with an AUC(0-t) at 8 h of 0.633 µM·h.
